The record followed here is ChEMBL document CHEMBL4673218, “Kojyl cinnamate esters are peroxisome proliferator-activated receptor α/γ dual agonists” (Bioorg Med Chem, 2018).

In experiment [1] the target is T1, PPAR alpha/gamma (Homo sapiens) (UniProt P37231+Q07869). Kind of experiment: Agonist activity at PPARalpha/PPARgamma in human AT-MSC cells assessed as upregulation of FASN mRNA at 10 uM incubated for 3 days by qRT-PCR analysis. Type of experiment: cell-based. Particulars: Adipose tissue derived mesenchymal stem cell, filed as agonist, time 3.0 day. On the technique in general: In qPCR the cycle at which signal appears reflects the starting amount.

The target of experiment [2] is T1, PPAR alpha/gamma (Homo sapiens). As to the kind of experiment: Agonist activity at PPARalpha/PPARgamma in human AT-MSC cells assessed as upregulation of ACACB mRNA at 10 uM incubated for 3 days by qRT-PCR analysis. The conditions noted are these: Adipose tissue derived mesenchymal stem cell, filed as agonist, time 3.0 day. It counts as cell-based.
For experiment [3] the target is unchanged. As to the kind of experiment: Agonist activity at PPARalpha/PPARgamma in human NHEK cells assessed as upregulation of FADS1 mRNA at 10 uM incubated for 3 days by qRT-PCR analysis. Type of experiment: cell-based. The conditions noted are these: filed as agonist, time 3.0 day.
Experiment [4] concerns NHEK. Kind of experiment: Inhibition of UVB-induced PGE2 level in human NHEK cells at 10 uM incubated for 24 hrs by ELISA. Type of experiment: functional, cell-based. (In general: ELISA stands for enzyme-linked immunosorbent assay.)
In experiment [5] the target is T1, PPAR alpha/gamma (Homo sapiens). As to the kind of experiment: Agonist activity at PPARalpha/PPARgamma in human NHEK cells assessed as upregulation of HMGCS2 mRNA at 10 uM incubated for 3 days by qRT-PCR analysis. Type of experiment: cell-based. Particulars: filed as agonist, time 3.0 day.
A short description of experiment [6]: Induction of adipogenesis in human AT-MSC assessed as adiponectin secretion at 30 uM in IDX medium incubated for 5 days by ELISA relative to IDX control. Type of experiment: functional, Adipose tissue derived mesenchymal stem cell. Particulars: time 5 day.
In experiment [7] the test system is NHEK. As to the kind of experiment: Inhibition of UVB-induced MMP1 mRNA in human NHEK cells at 10 uM incubated for 24 hrs by qRT-PCR analysis. It counts as functional, cell-based.
The target in experiment [8] is T2, Peroxisome proliferator-activated receptor gamma (Homo sapiens, UniProt P37231).
T2 sequence (P37231 whole entry): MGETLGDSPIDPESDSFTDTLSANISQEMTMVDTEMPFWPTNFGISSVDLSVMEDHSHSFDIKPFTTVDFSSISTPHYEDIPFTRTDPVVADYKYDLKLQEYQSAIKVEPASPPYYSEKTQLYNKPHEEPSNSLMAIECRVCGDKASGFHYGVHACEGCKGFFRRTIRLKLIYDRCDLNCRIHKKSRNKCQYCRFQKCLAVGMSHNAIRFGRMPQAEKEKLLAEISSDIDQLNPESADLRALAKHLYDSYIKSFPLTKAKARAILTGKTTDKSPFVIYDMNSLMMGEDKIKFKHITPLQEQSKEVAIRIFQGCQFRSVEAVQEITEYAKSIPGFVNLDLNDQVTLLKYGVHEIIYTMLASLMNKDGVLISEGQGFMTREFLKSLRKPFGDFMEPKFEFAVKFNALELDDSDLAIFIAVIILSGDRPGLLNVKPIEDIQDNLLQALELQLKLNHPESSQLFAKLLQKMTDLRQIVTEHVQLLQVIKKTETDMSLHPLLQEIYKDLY
Kind of experiment: (§1) Binding affinity to human recombinant PPARgamma by Cheng-Prusoff equation based competitive binding TR-FRET assay. For orientation: In TR-FRET formats the signal depends on donor and acceptor labels being close together.

The target of experiment [9] is T3, Peroxisome proliferator-activated receptor gamma (Homo sapiens) (UniProt P37231).
T3 sequence (whole entry): T2 sequence (P37231 whole entry)
Described as §1. The conditions noted are these: filed as agonist.

Experiment [10] deals with T1, PPAR alpha/gamma (Homo sapiens). As to the kind of experiment: Agonist activity at PPARalpha/PPARgamma in human AT-MSC cells assessed as upregulation of SCD1 mRNA at 10 uM incubated for 3 days by qRT-PCR analysis. It counts as cell-based. The conditions noted are these: Adipose tissue derived mesenchymal stem cell, filed as agonist, time 3.0 day.
The target of experiment [11] is T4, Peroxisome proliferator-activated receptor alpha (Homo sapiens, UniProt Q07869).
T4 sequence (Q07869 whole entry): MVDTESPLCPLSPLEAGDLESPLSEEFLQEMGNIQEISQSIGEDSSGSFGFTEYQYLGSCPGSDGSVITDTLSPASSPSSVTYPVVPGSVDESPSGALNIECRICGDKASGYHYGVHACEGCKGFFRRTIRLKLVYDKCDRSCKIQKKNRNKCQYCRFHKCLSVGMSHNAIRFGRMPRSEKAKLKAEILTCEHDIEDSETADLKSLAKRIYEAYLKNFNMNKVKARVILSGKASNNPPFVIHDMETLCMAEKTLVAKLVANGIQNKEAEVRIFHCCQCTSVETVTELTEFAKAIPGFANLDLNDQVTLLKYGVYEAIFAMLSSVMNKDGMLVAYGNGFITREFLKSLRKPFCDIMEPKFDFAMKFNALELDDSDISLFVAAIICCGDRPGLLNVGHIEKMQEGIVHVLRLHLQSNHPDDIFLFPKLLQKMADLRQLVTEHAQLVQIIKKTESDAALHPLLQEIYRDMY
Kind of experiment: (§2) Binding affinity to human recombinant PPARalpha by Cheng-Prusoff equation based competitive binding TR-FRET assay.

The target of experiment [12] is T5, Peroxisome proliferator-activated receptor alpha (Homo sapiens) (UniProt Q07869).
T5 sequence (whole entry): T4 sequence (Q07869 whole entry)
The description is as §2. Particulars: filed as agonist.

Experiment [13] is described as follows: Induction of adipogenesis in human AT-MSC assessed as adiponectin secretion at 30 uM in IDX medium incubated for 5 days by ELISA (reference value: 100 +/- 15 pg/ml). It counts as functional, Adipose tissue derived mesenchymal stem cell. The conditions noted are these: time 5 day.
For experiment [14], the target named is T5, Peroxisome proliferator-activated receptor alpha (Homo sapiens). As to the kind of experiment: Binding affinity to human recombinant PPARalpha at 30 uM by competitive binding based TR-FRET assay relative to control. Particulars: filed as agonist.
Experiment [15] has as its system Adipose tissue derived mesenchymal stem cell. As to the kind of experiment: Induction of adipogenesis in human AT-MSC cells assessed as increase in intracellular lipid accumulation at 30 uM in IDX medium incubated for 5 days by Oil Red O staining based inverted phase microscopy relative to IDX control. Type of experiment: functional. The conditions noted are these: time 5.0 day.

In experiment [16] the target is T1, PPAR alpha/gamma (Homo sapiens). As to the kind of experiment: Agonist activity at PPARalpha/PPARgamma in human AT-MSC cells assessed as upregulation of FADS2 mRNA at 10 uM incubated for 3 days by qRT-PCR analysis. It counts as cell-based. Particulars: Adipose tissue derived mesenchymal stem cell, filed as agonist, time 3.0 day.
Experiment [17] deals with T6, Peroxisome proliferator-activated receptor delta (Homo sapiens) (UniProt Q03181).
T6 sequence (whole entry): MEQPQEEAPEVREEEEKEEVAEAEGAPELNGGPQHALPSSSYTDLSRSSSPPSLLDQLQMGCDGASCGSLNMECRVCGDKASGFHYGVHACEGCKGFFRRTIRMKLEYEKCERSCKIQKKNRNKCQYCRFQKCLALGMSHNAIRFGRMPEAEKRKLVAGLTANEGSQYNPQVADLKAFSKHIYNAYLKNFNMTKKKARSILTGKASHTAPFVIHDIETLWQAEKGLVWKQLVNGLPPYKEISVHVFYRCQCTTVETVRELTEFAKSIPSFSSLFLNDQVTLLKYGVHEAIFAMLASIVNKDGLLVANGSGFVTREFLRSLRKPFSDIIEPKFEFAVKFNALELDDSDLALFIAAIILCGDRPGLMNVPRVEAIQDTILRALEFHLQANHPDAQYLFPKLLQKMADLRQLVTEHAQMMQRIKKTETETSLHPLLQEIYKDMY
Kind of experiment: Binding affinity to human recombinant PPARdelta at 30 uM by competitive binding based TR-FRET assay.

Each structure is given as a SMILES string. The source made the active and inactive calls. No cut-off for these calls is given here.

One may read the Ki as the dissociation constant of the complex between target and ligand, obtained from inhibition or displacement. As for `COc1ccc(OC)c(/C=C/C(=O)OCc2cc(=O)c(O)co2)c1`, the outcome in experiment [1], in experiment [2], in experiment [3], in experiment [5], in experiment [10] and in experiment [15] was Active. For the same compound, the result in experiment [16] was Active. Moreover, the inhibition entry in experiment [4] and in [7] was “Active” throughout. Also, in [6], the “fold change (FC)” value is reported as 3.83. For the same compound, the values for the Ki in experiment [8] and in experiment [11] were 7 µM and 9.5 µM, respectively. Also, the Activity entry was “Dose-dependent effect” in [9], “Dose-dependent effect” in experiment [12], 383 pg/mL in experiment [13] and 59% in [14]. In addition, the outcome in experiment [17] was inactive.
